Test results from US4656166A, “Antibiotic compounds derived from cephalosporins, process for their production and pharmaceutical compositions” (Sanofi, priority 1983, dated 1987).
Converted amounts (≈) assume the structure as drawn.

Columns and labels:
Format in all cases: cell-based
[1] = test system: Escherichia coli SOL 90; experiment: MIC, in vitro dilution method, Escherichia coli SOL 90 (Table III); conditions: SOL90; Escherichia coli SOL 90; dilution method; read-out: MIC
Excerpt: (§1) The products of the invention have been studied as regards their pharmacological properties and, more especially, bacteriostatic action. This has been determined in vitro by the dilution method, and the study was on Gram negative strains.
(§2) Results, expressed in minimum inhibiting concentrations (MIC-- μg/ml), are collected in the following table (Table III).

[2] = test system: Enterobacter RO 154; experiment: MIC, in vitro dilution method, Enterobacter RO 154 (Table III); conditions: RO154; Enterobacter RO 154; dilution method; read-out: MIC
Excerpt: as §1, §2

[3] = test system: Pseudomonas RL 112; experiment: MIC, in vitro dilution method, Pseudomonas RL 112 (Table III); conditions: RL112
Excerpt: as §1, §2

[4] = test system: Klebsiella RO 30; experiment: MIC, in vitro dilution method, Klebsiella RO 30 (Table III); conditions: RO30; Klebsiella RO 30; dilution method; read-out: MIC
Excerpt: as §1, §2

SMILES	MIC [1] [µg/mL]	MIC [2] [µg/mL]	MIC [3] [µg/mL]	MIC [4] [µg/mL]
CC(C)(ON=C(C(=O)NC1C(=O)N2C(C(=O)O)=C(COC(=O)c3ccc(CN)c(F)c3)C[S+]([O-])C12)c1csc(N)n1)C(=O)O (stereo not shown) [42 581]	0.125 (≈ 0.192 µM)	2 (≈ 3.06 µM)	4 (≈ 6.13 µM)	0.125 (≈ 0.192 µM)
CNCc1ccc(C(=O)OCC2=C(C(=O)O)N3C(=O)C(NC(=O)C(=NOC(C)(C)C(=O)O)c4csc(N)n4)C3[S+]([O-])C2)cc1F (stereo not shown) [42 582]	0.25 (≈ 0.375 µM)	2 (≈ 3 µM)	8 (≈ 12 µM)	0.25 (≈ 0.375 µM)
CNCC(=O)Nc1cccc(C(=O)OCC2=C(C(=O)O)N3C(=O)C(NC(=O)C(=NOC(C)(C)C(=O)O)c4csc(N)n4)C3[S+]([O-])C2)c1 (stereo not shown) [42 583]	1 (≈ 1.45 µM)	4 (≈ 5.78 µM)	8 (≈ 11.6 µM)	0.5 (≈ 0.723 µM)
CNCC(=O)Nc1ccc(C(=O)OCC2=C(C(=O)O)N3C(=O)C(NC(=O)C(=NOC(C)(C)C(=O)O)c4csc(N)n4)C3[S+]([O-])C2)cc1 (stereo not shown) [42 584]	0.25 (≈ 0.361 µM)	2 (≈ 2.89 µM)	4 (≈ 5.78 µM)	0.25 (≈ 0.361 µM)
Cc1c(NC(=O)CN)cccc1C(=O)OCC1=C(C(=O)O)N2C(=O)C(NC(=O)C(=NOC(C)(C)C(=O)O)c3csc(N)n3)C2[S+]([O-])C1 (stereo not shown) [42 585]	0.25 (≈ 0.361 µM)	8 (≈ 11.6 µM)	4 (≈ 5.78 µM)	0.25 (≈ 0.361 µM)
Cc1c(NC(=O)CCN)cccc1C(=O)OCC1=C(C(=O)O)N2C(=O)C(NC(=O)C(=NOC(C)(C)C(=O)O)c3csc(N)n3)C2[S+]([O-])C1 (stereo not shown) [42 586]	0.25 (≈ 0.354 µM)	16 (≈ 22.7 µM)	4 (≈ 5.67 µM)	0.25 (≈ 0.354 µM)
CC(C)(ON=C(C(=O)NC1C(=O)N2C(C(=O)O)=C(COC(=O)c3csc(NC(=O)CCN)n3)C[S+]([O-])C12)c1csc(N)n1)C(=O)O (stereo not shown) [42 587]	0.25 (≈ 0.358 µM)	8 (≈ 11.4 µM)	4 (≈ 5.72 µM)	0.25 (≈ 0.358 µM)
CN(C(=O)CN)c1ccc(C(=O)OCC2=C(C(=O)O)N3C(=O)C(NC(=O)C(=NOC(C)(C)C(=O)O)c4csc(N)n4)C3[S+]([O-])C2)cc1 (stereo not shown) [42 657]	0.25 (≈ 0.361 µM)	4 (≈ 5.78 µM)	8 (≈ 11.6 µM)	0.25 (≈ 0.361 µM)
NCCC(=O)Nc1ccc(C(=O)OCC2=C(C(=O)O)N3C(=O)C(NC(=O)C(=NOC4(C(=O)O)CCC4)c4csc(N)n4)C3[S+]([O-])C2)cc1 (stereo not shown) [42 658]	0.125 (≈ 0.178 µM)	8 (≈ 11.4 µM)	4 (≈ 5.68 µM)	0.125 (≈ 0.178 µM)
CC(C)(ON=C(C(=O)NC1C(=O)N2C(C(=O)O)=C(COC(=O)c3ccc(CN)c(Br)c3)C[S+]([O-])C12)c1csc(N)n1)C(=O)O (stereo not shown) [42 676]	0.25 (≈ 0.35 µM)	2 (≈ 2.8 µM)	8 (≈ 11.2 µM)	0.25 (≈ 0.35 µM)
CC(C)(ON=C(C(=O)NC1C(=O)N2C(C(=O)O)=C(COC(=O)c3cccc(NC(=O)CCCN)c3)C[S+]([O-])C12)c1csc(N)n1)C(=O)O (stereo not shown) [42 687]	2 (≈ 2.83 µM)	4 (≈ 5.67 µM)	8 (≈ 11.3 µM)	1 (≈ 1.42 µM)
CC(C)(ON=C(C(=O)NC1C(=O)N2C(C(=O)O)=C(COC(=O)c3ccc(NC(=O)CCCN)cc3)C[S+]([O-])C12)c1csc(N)n1)C(=O)O (stereo not shown) [42 688]	0.125 (≈ 0.177 µM)	4 (≈ 5.67 µM)	4 (≈ 5.67 µM)	0.25 (≈ 0.354 µM)
CC(C)(ON=C(C(=O)NC1C(=O)N2C(C(=O)O)=C(COC(=O)c3ccc(NC(=O)CCCCN)cc3)C[S+]([O-])C12)c1csc(N)n1)C(=O)O (stereo not shown) [42 689]	0.125 (≈ 0.174 µM)	4 (≈ 5.56 µM)	4 (≈ 5.56 µM)	0.25 (≈ 0.347 µM)
Cc1nc(NC(=O)CN)sc1C(=O)OCC1=C(C(=O)O)N2C(=O)C(NC(=O)C(=NOC(C)(C)C(=O)O)c3csc(N)n3)C2[S+]([O-])C1 (stereo not shown) [42 690]	0.5 (≈ 0.716 µM)	8 (≈ 11.4 µM)	4 (≈ 5.72 µM)	0.5 (≈ 0.716 µM)
CC(N)C(=O)N1CCC(C(=O)OCC2=C(C(=O)O)N3C(=O)C(NC(=O)C(=NOC(C)(C)C(=O)O)c4csc(N)n4)C3[S+]([O-])C2)CC1 (stereo not shown) [42 781]	0.25 (≈ 0.366 µM)	2 (≈ 2.93 µM)	4 (≈ 5.85 µM)	0.125 (≈ 0.183 µM)
CC(C)(ON=C(C(=O)NC1C(=O)N2C(C(=O)O)=C(COC(=O)C3CCN(C(=O)CCN)CC3)C[S+]([O-])C12)c1csc(N)n1)C(=O)O (stereo not shown) [42 782]	0.25 (≈ 0.366 µM)	2 (≈ 2.93 µM)	4 (≈ 5.85 µM)	0.125 (≈ 0.183 µM)

SMILES	MIC [1] [µg/mL]	MIC [2] [µg/mL]	MIC [3] [µg/mL]	MIC [4] [µg/mL]
CC(C)(ON=C(C(=O)NC1C(=O)N2C(C(=O)O)=C(COC(=O)C3CCN(C(=O)CCCN)CC3)C[S+]([O-])C12)c1csc(N)n1)C(=O)O (stereo not shown) [42 783]	0.25 (≈ 0.358 µM)	2 (≈ 2.87 µM)	8 (≈ 11.5 µM)	0.125 (≈ 0.179 µM)
CC(C)(ON=C(C(=O)NC1C(=O)N2C(C(=O)O)=C(COC(=O)C3CCC(N)CC3)C[S+]([O-])C12)c1csc(N)n1)C(=O)O (stereo not shown) [42 811]	0.125 (≈ 0.199 µM)	2 (≈ 3.19 µM)	4 (≈ 6.38 µM)	0.125 (≈ 0.199 µM)
Cc1cc(NC(=O)CN)c(C)c(C(=O)OCC2=C(C(=O)O)N3C(=O)C(NC(=O)C(=NOC(C)(C)C(=O)O)c4csc(N)n4)C3[S+]([O-])C2)c1 (stereo not shown) [42 814]	0.5 (≈ 0.708 µM)	8 (≈ 11.3 µM)	8 (≈ 11.3 µM)	0.25 (≈ 0.354 µM)
CC(C)(ON=C(C(=O)NC1C(=O)N2C(C(=O)O)=C(COC(=O)c3ccc(NC(=O)C4CCNCC4)cc3)C[S+]([O-])C12)c1csc(N)n1)C(=O)O (stereo not shown) [42 815]	0.125 (≈ 0.171 µM)	8 (≈ 10.9 µM)	8 (≈ 10.9 µM)	0.25 (≈ 0.342 µM)
CC(N)C(=O)Nc1ccc(C(=O)OCC2=C(C(=O)O)N3C(=O)C(NC(=O)C(=NOC(C)(C)C(=O)O)c4csc(N)n4)C3[S+]([O-])C2)cc1 (stereo not shown) [42 817]	0.125 (≈ 0.181 µM)	4 (≈ 5.78 µM)	4 (≈ 5.78 µM)	0.25 (≈ 0.361 µM)
CC(N)C(=O)Nc1ccc(C(=O)OCC2=C(C(=O)O)N3C(=O)C(NC(=O)C(=NOC4(C(=O)O)CCC4)c4csc(N)n4)C3[S+]([O-])C2)cc1 (stereo not shown) [42 818]	0.125 (≈ 0.178 µM)	4 (≈ 5.68 µM)	4 (≈ 5.68 µM)	0.125 (≈ 0.178 µM)
Cc1cc(CN)ccc1C(=O)OCC1=C(C(=O)O)N2C(=O)C(NC(=O)C(=NOC(C)(C)C(=O)O)c3csc(N)n3)C2[S+]([O-])C1 (stereo not shown) [42 848]	0.125 (≈ 0.193 µM)	2 (≈ 3.08 µM)	4 (≈ 6.17 µM)	0.125 (≈ 0.193 µM)
Cc1cc(CN)ccc1C(=O)OCC1=C(C(=O)O)N2C(=O)C(NC(=O)C(=NOC3(C(=O)O)CCC3)c3csc(N)n3)C2[S+]([O-])C1 (stereo not shown) [42 849]	0.125 (≈ 0.189 µM)	2 (≈ 3.03 µM)	4 (≈ 6.05 µM)	0.125 (≈ 0.189 µM)
CC(N)C(=O)Nc1nc(C(=O)OCC2=C(C(=O)O)N3C(=O)C(NC(=O)C(=NOC(C)(C)C(=O)O)c4csc(N)n4)C3[S+]([O-])C2)cs1 (stereo not shown) [42 857]	0.5 (≈ 0.716 µM)	8 (≈ 11.4 µM)	8 (≈ 11.4 µM)	1 (≈ 1.43 µM)
Cc1cc(C(=O)SCC2=C(C(=O)O)N3C(=O)C(NC(=O)C(=NOC(C)(C)C(=O)O)c4csc(N)n4)C3[S+]([O-])C2)ccc1CN (stereo not shown) [compound 42661]	0.5 (≈ 0.752 µM)	1 (≈ 1.5 µM)	8 (≈ 12 µM)	0.25 (≈ 0.376 µM)
CC(C)(CN)C(=O)SCC1=C(C(=O)O)N2C(=O)C(NC(=O)C(=NOC(C)(C)C(=O)O)c3csc(N)n3)C2[S+]([O-])C1 (stereo not shown) [compound 42663]	4 (≈ 6.49 µM)	4 (≈ 6.49 µM)	8 (≈ 13 µM)	1 (≈ 1.62 µM)
NCC(=O)Nc1ccc(C(=O)SCC2=C(C(=O)O)N3C(=O)C(NC(=O)C(=NOC4(C(=O)O)CCC4)c4csc(N)n4)C3[S+]([O-])C2)cc1 (stereo not shown) [compound 42665]	0.5 (≈ 0.708 µM)	2 (≈ 2.83 µM)	8 (≈ 11.3 µM)	0.5 (≈ 0.708 µM)
NCC(=O)N1CCC(C(=O)SCC2=C(C(=O)O)N3C(=O)C(NC(=O)C(=NOC4(C(=O)O)CCC4)c4csc(N)n4)C3[S+]([O-])C2)CC1 (stereo not shown) [compound 42674]	1 (≈ 1.43 µM)	2 (≈ 2.87 µM)	8 (≈ 11.5 µM)	0.5 (≈ 0.717 µM)
CC(C)(ON=C(C(=O)NC1C(=O)N2C(C(=O)O)=C(CSC(=O)c3cccc(NC(=O)CN)c3)C[S+]([O-])C12)c1csc(N)n1)C(=O)O (stereo not shown) [compound 42685]	2 (≈ 2.88 µM)	2 (≈ 2.88 µM)	8 (≈ 11.5 µM)	1 (≈ 1.44 µM)
NCC(=O)Nc1cccc(C(=O)SCC2=C(C(=O)O)N3C(=O)C(NC(=O)C(=NOC4(C(=O)O)CCC4)c4csc(N)n4)C3[S+]([O-])C2)c1 (stereo not shown) [compound 42686]	2 (≈ 2.83 µM)	2 (≈ 2.83 µM)	8 (≈ 11.3 µM)	1 (≈ 1.42 µM)
